Measurements published in ChEMBL document CHEMBL1201862, “PubChem BioAssay data set” (2004).
Active and inactive are the calls of the source.

What was measured:
Genome polyprotein = Genome polyprotein (dengue virus type 2, UniProt P29990); assay: flavivirus cap methylation enzyme inhibition – biochemical, confirmation dose response, primary screen (AID 588689); format: functional
[1] = biological target: T1, Polyadenylate-binding protein 1 (Homo sapiens, UniProt P11940); assay: MLLE domain peptide-binding blockers, IC50 – biochemical, fluorescence polarization, FITC-PAM2 peptide, dose response (AID 602259); format: functional; conditions: read-out: IC50_Mean
[2] = biological target: Eukaryotic translation initiation factor 4E (Mus musculus, UniProt P63073); assay: blockers of eIF4G binding by eIF4E – biochemical, TR-FRET, dose response (AID 855); format: functional;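 note: potency for disrupting eIF4E binding to eIF4GI seen as loss of FRET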
[3] = biological target: Induced myeloid leukemia cell differentiation protein Mcl-1 (Homo sapiens, UniProt Q07820); format: functional
[4] = biological target: T1, Polyadenylate-binding protein 1; assay: MLLE binding blockers, Cy5 peptide tracer – biochemical, fluorescence polarization, Cy5-PAM2 peptide, secondary, miRNA deadenylation inhibitor project, dose response (AID 602260); format: functional; conditions: read-out: IC50_Mean
Large T antigen = Large T antigen (Simian virus 40, UniProt P03070); format: functional, Betapolyomavirus macacae;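 note: Confirmatory-stage PubChem screen for compounds that inhibit SV40 T antigen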
[5] = biological target: T2, Tyrosine-protein phosphatase non-receptor type 7 (Homo sapiens, UniProt P35236); assay: redox-active compounds inhibiting HePTP phosphatase – biochemical, fluorescence, mechanism study (AID 2068); format: functional
T2 sequence (P35236 whole entry): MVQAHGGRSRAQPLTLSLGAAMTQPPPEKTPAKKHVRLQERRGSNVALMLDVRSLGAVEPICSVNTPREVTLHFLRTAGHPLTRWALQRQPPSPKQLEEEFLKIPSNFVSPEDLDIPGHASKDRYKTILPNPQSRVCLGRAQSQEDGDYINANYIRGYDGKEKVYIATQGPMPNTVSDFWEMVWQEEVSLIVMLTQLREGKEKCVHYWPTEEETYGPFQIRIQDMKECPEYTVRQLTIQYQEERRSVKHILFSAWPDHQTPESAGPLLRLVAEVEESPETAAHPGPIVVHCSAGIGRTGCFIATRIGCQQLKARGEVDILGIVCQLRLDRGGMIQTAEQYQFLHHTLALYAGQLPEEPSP

[6] = biological target: T3, Apoptotic protease-activating factor 1 (Homo sapiens, UniProt O14727); format: functional
T3 sequence (O14727 whole entry): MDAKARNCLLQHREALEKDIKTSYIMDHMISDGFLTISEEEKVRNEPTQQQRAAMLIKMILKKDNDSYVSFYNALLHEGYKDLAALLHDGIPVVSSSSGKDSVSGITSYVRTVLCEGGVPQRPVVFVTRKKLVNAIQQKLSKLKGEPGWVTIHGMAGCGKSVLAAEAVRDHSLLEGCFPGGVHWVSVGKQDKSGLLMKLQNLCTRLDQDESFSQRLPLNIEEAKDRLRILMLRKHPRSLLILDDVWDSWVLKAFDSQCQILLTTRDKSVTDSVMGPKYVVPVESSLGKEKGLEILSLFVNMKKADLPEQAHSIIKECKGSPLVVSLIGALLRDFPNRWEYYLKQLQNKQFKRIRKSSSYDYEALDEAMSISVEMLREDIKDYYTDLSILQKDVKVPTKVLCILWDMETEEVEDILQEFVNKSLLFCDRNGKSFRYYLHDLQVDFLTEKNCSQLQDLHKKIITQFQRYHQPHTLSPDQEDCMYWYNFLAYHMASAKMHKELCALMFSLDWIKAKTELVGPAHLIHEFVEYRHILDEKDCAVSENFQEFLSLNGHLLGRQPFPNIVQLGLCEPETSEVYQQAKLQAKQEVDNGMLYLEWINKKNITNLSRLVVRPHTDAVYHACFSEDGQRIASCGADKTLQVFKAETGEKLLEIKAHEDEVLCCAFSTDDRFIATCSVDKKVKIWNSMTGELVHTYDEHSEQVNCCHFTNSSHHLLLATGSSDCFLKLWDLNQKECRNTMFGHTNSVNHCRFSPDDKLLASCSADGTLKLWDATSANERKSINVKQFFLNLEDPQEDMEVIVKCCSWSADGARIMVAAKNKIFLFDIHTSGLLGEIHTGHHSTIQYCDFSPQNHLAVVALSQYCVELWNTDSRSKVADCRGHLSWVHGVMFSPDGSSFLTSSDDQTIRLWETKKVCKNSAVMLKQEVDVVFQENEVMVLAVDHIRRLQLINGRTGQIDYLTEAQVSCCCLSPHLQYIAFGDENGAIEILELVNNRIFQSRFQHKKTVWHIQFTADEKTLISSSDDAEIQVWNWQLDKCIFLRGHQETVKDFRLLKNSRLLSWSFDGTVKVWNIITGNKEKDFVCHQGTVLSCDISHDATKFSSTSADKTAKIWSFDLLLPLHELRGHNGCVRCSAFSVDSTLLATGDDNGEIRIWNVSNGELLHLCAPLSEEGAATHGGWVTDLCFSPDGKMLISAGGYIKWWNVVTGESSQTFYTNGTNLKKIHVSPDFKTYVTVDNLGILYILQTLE

[7] = biological target: Glutathione-S-transferase (Schistosoma japonicum, UniProt Q26513); assay: GST-antibody interaction or FRET quenching – biochemical, TR-FRET, artefact control for Vif-APOBEC3G degradation inhibitor project, dose response (AID 1117362); format: functional
ORF 73 = biological target: T4, ORF 73 (Human herpesvirus 8, UniProt O40947); assay: KSHV LANA DNA-binding disruption – biochemical, fluorescence polarization, cherry-picked samples, dose response (AID 504725); parameters: species or system Human gammaherpesvirus 8;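 note: fluorescence polarization of a labeled DNA duplex reporting LANA DNA binding; potency is for inhibitors that block LANA binding to the DNA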
T4 sequence (O40947 whole entry): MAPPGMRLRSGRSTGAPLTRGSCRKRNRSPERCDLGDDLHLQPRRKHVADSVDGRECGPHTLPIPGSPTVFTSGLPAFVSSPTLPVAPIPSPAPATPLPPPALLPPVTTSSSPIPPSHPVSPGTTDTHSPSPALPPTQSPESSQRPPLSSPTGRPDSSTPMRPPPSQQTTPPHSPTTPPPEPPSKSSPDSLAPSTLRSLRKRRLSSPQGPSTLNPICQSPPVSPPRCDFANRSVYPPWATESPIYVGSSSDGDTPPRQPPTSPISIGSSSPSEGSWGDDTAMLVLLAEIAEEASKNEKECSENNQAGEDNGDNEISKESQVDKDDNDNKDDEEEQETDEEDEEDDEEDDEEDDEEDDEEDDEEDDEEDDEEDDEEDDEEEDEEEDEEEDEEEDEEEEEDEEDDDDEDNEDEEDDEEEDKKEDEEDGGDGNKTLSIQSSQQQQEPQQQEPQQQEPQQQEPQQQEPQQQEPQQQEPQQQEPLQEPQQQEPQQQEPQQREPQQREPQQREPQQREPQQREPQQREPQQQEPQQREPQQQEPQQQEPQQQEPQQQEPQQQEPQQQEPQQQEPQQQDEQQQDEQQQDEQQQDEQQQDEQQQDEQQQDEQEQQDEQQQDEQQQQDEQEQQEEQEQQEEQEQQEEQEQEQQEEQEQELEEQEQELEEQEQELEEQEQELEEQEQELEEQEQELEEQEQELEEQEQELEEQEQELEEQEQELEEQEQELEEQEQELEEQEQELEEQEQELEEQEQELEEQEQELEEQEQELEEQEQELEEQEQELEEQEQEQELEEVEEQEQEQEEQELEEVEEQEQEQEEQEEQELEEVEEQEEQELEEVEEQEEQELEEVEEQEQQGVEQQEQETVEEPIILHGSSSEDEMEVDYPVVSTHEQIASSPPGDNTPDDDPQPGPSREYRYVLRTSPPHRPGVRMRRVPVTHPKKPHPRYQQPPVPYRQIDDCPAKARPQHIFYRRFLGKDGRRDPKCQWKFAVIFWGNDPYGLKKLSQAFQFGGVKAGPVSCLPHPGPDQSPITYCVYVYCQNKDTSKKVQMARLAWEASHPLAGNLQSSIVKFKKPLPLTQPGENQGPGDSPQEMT

Salmon testes DNA = assay: acridine orange-DNA binding displacement – biochemical, fluorescence polarization, cherry-picked samples, set 2, artefact control for KSHV LANA DNA-binding inhibitor project, dose response (AID 504727); parameters: species or system Salmonidae
[8] = biological target: Dual specificity protein phosphatase 3 (Homo sapiens, UniProt P51452); assay: SAR VHR1 Fluorescent Assay for In Vitro dose response studies. [Related pubchem assays (depositor defined):AID1654, AID1661, AID1878, AID1992, AID2004, AID2070, AID2085]; format: functional
Albumin = Albumin (Bos taurus, UniProt P02769); assay: Counterscreen for inhibitors of T-cell receptor (TCR)-CD3 interaction: Fluorescence-based biochemical high throughput dose response assay to identify inhibitors of T-cell receptor (TCR)-CD3 interaction using a TAMRA-labeled BSA probe.; format: functional
HEK293 [9] = assay: SAR analysis of compounds that are cytotoxic to HEK293 - Set 2. [Related pubchem assays (depositor defined):AID1575, AID1578, AID1849, AID2001, AID2333, AID2334, AID2335, AID2337, AID2800]; format: functional, cell-based; conditions: Homo sapiens
[10] = biological target: T5, Nucleotide-binding oligomerization domain-containing protein 1 (Homo sapiens, UniProt Q9Y239); assay: SAR analysis of NF-kappaB dependent luciferase using DAP as an inducer - Set 2. [Related pubchem assays (depositor defined):AID1566, AID1575, AID1578, AID1579, AID1849, AID1852, AID2264]; format: functional
T5 sequence (Q9Y239 whole entry): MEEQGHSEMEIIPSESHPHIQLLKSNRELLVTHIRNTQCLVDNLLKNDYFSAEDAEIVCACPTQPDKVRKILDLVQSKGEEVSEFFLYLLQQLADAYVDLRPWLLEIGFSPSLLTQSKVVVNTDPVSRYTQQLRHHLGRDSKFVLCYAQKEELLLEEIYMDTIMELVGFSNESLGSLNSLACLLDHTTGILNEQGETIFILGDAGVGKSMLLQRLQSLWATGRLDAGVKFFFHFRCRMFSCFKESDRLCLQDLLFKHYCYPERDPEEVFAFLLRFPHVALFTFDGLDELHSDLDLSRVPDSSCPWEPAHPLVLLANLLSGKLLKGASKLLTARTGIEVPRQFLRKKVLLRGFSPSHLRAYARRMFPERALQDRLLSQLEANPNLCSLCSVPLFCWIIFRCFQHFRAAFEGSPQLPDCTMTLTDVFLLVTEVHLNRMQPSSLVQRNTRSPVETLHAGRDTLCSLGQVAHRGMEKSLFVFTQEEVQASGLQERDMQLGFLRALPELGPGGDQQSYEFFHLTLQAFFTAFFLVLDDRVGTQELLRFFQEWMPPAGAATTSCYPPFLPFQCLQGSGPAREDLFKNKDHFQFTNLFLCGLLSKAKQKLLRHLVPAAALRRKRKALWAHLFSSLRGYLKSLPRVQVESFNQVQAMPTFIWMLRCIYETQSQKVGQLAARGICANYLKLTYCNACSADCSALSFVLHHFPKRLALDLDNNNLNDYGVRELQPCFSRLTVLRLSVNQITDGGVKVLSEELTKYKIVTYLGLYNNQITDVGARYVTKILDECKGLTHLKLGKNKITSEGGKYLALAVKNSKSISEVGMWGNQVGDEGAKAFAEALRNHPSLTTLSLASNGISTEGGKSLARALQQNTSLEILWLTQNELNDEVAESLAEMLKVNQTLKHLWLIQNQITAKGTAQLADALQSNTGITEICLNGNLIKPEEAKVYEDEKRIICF

Interleukin-8 [11] = biological target: T6, Interleukin-8 (Homo sapiens, UniProt P10145); assay: SAR analysis of GM-Tri-DAP induced IL-8 secretion in MCF-7/NOD1 cells - Set 2. [Related pubchem assays (depositor defined):AID1575, AID1578, AID2333]; format: functional, cell-based
T6 sequence (P10145 whole entry): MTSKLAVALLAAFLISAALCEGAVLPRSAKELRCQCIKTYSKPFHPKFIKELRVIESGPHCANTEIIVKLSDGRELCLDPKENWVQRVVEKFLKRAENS

[12] = biological target: T5, Nucleotide-binding oligomerization domain-containing protein 1; assay: SAR analysis of compounds that inhibit NOD1 - Set 3. [Related pubchem assays (depositor defined):AID1566, AID1575, AID1578, AID1849, AID1852, AID2333, AID2335, AID2466]; format: functional
[13] = biological target: Nucleotide-binding oligomerization domain-containing protein 2 (Homo sapiens, UniProt Q9HC29); assay: inhibition of NOD2 signaling – set 2, SAR follow-up (AID 2475); format: functional
[14] = biological target: T5, Nucleotide-binding oligomerization domain-containing protein 1; assay: SAR analysis of compounds that inhibit NOD1 - Set 2. [Related pubchem assays (depositor defined):AID1566, AID1575, AID1578, AID1849, AID1852, AID2333, AID2335, AID2798]; format: functional
Interleukin-8 [15] = biological target: T6, Interleukin-8; assay: SAR analysis of Tumor necrosis factor alpha (TNF-alpha) induced IL-8 secretion in MCF-7/NOD1 cells - Set 2. [Related pubchem assays (depositor defined):AID1575, AID2250, AID2260]; format: functional, cell-based
HEK293 [16] = assay: SAR analysis of compounds that are cytotoxic to HEK293 - Set 3. [Related pubchem assays (depositor defined):AID1575, AID1578, AID1848, AID1849, AID2001, AID2333, AID2334, AID2335, AID2337, AID2469]; format: functional, cell-based; conditions: Homo sapiens

T1 sequence (P11940 whole entry, the tested form may be a part): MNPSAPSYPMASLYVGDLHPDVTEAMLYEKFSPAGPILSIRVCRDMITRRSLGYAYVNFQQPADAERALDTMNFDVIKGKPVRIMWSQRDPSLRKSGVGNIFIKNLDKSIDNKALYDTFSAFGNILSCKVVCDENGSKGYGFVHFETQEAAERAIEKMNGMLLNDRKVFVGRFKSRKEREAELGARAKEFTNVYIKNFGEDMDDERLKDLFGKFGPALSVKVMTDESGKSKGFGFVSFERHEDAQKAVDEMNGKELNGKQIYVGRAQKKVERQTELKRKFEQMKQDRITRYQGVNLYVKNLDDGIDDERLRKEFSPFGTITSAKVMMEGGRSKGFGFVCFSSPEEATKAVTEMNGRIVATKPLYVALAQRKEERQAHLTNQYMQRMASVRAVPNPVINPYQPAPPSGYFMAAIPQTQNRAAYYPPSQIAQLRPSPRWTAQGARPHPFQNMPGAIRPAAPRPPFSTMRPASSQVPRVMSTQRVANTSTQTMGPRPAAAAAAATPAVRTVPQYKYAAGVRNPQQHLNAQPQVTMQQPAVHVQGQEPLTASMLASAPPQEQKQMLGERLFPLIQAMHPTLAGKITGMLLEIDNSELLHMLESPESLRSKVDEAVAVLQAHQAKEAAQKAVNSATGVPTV
Large T antigen, sequence (P03070 whole entry): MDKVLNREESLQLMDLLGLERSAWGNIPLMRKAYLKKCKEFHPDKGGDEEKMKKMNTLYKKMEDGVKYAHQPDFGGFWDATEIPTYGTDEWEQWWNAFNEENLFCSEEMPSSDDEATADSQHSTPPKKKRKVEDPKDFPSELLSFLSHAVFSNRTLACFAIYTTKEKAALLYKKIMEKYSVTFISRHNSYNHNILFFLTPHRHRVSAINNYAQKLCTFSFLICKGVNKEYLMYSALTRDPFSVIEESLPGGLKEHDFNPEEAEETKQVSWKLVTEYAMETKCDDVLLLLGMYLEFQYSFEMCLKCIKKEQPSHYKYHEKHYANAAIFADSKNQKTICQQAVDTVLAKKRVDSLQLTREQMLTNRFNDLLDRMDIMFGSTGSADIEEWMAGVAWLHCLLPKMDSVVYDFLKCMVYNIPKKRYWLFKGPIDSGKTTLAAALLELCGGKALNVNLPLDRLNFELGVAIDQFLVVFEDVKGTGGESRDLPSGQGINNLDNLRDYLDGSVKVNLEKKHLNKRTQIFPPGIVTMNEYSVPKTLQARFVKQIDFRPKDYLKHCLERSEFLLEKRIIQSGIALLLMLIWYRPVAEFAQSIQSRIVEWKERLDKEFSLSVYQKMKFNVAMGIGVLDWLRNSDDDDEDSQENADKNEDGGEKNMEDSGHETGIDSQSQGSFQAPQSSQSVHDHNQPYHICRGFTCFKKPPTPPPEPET
Dual specificity protein phosphatase 3, sequence (P51452 whole entry): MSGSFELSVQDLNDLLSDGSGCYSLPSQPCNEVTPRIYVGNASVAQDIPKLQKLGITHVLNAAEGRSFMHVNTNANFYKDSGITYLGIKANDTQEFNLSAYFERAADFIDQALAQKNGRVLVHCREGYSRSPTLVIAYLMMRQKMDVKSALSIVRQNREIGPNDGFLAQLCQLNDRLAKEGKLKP
Induced myeloid leukemia cell differentiation protein Mcl-1, sequence (Q07820 whole entry): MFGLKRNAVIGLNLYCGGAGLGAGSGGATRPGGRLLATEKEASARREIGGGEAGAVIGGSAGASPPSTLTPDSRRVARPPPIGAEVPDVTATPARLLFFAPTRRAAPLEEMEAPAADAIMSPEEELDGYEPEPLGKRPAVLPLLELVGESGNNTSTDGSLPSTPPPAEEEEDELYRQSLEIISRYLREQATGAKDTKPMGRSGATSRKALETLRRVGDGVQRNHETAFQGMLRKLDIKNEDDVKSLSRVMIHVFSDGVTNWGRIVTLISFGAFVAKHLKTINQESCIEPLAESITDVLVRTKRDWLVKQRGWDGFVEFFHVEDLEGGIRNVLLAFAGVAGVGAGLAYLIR
Eukaryotic translation initiation factor 4E, sequence (P63073 whole entry): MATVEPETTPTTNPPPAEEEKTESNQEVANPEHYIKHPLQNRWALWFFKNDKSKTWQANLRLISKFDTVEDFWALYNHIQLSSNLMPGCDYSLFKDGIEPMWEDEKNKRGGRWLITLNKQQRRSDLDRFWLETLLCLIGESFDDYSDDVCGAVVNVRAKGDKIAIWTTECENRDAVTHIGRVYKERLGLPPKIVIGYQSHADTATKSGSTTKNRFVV
Genome polyprotein, sequence (P29990 2492-3391 limits assumed): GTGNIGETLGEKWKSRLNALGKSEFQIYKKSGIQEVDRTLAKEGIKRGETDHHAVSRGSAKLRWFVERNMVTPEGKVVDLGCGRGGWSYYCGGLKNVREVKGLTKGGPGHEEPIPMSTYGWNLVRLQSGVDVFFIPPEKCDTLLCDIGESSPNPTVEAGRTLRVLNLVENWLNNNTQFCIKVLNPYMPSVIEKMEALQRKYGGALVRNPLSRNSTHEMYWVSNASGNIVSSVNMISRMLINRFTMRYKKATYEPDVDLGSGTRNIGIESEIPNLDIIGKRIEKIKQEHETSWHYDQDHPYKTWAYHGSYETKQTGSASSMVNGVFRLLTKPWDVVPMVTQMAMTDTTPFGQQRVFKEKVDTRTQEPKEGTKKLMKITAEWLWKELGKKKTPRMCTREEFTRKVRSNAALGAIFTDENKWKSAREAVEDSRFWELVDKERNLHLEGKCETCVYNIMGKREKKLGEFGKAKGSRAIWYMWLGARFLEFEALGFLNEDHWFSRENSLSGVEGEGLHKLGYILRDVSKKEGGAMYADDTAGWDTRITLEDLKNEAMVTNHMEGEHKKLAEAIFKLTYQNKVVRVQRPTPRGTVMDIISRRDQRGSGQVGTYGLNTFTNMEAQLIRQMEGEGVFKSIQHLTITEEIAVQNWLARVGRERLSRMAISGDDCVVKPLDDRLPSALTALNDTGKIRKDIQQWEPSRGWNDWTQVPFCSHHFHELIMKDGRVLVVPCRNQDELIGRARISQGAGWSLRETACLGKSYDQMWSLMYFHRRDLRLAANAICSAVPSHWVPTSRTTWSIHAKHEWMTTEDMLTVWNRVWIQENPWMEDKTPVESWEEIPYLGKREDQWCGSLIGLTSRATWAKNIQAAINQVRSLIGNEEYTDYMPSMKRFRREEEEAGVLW
Albumin, sequence (P02769 whole entry): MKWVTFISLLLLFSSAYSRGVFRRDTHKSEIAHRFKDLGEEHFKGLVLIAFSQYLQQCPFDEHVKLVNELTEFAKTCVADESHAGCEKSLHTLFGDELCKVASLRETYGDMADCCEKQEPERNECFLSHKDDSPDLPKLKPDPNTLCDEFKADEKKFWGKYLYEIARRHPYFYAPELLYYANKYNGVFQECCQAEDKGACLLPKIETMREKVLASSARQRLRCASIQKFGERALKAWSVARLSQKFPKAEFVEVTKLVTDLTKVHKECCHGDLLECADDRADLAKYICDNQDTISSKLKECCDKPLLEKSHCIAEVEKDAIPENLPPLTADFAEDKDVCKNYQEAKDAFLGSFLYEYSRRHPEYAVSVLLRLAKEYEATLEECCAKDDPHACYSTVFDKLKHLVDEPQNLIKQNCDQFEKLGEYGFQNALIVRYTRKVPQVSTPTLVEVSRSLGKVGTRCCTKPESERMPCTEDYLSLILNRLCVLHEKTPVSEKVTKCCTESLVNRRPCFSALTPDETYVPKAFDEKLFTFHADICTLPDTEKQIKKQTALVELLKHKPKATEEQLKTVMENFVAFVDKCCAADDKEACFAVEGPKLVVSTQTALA
Nucleotide-binding oligomerization domain-containing protein 2, sequence (Q9HC29 whole entry, the tested form may be a part): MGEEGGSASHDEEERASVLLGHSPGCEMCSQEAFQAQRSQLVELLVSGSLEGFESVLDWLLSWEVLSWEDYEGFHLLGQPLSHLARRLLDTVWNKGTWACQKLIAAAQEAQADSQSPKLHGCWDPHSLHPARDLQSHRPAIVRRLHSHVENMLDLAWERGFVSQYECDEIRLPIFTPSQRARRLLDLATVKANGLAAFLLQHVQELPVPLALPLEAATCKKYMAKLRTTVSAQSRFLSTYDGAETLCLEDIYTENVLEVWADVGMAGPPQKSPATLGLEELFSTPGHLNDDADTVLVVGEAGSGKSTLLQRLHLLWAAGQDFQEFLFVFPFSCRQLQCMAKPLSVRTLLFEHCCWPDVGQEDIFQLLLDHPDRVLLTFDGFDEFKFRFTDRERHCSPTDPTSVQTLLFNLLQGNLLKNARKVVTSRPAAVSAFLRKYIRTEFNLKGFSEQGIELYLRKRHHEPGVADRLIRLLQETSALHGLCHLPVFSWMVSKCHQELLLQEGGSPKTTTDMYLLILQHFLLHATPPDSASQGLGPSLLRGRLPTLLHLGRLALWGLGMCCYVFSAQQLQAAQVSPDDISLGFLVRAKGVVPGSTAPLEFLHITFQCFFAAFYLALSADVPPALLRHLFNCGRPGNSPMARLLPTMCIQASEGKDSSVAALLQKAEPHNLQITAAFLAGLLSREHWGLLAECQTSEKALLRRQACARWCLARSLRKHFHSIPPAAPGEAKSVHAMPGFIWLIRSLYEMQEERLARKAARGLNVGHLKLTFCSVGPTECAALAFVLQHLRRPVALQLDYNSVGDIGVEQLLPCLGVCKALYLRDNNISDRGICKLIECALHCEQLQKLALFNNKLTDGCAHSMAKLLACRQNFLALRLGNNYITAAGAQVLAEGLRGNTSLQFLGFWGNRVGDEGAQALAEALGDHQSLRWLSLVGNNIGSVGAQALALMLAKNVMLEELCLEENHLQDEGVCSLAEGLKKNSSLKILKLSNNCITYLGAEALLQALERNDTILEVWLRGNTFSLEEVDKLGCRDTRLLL
Glutathione-S-transferase, sequence (Q26513 whole entry): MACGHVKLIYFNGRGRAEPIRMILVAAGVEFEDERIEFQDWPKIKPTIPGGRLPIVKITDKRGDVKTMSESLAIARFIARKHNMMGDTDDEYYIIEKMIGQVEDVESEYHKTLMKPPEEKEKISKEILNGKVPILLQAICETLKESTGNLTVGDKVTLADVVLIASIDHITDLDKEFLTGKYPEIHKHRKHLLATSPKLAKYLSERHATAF

COCCNC(=O)Nc1ccc2nc(-c3ccco3)c(-c3ccco3)nc2c1
IC50 (Genome polyprotein): 27.9 µM (active) | IC50 [1]: 39.2 µM (inactive) | IC50 [2]: 50 µM (inactive) | IC50 [3]: 0.831 µM (active) | IC50 [4]: > 66 µM (inactive) | IC50 (Large T antigen): > 100 µM (active) | IC50 [5]: 0.198 µM (active) | IC50 [6]: 52 µM (active) | IC50 [7]: > 100 µM (active) | AC50 (ORF 73): 23.5 µM (active) | AC50 (Salmon testes DNA): 63.1 µM (active) | IC50 [8]: 0.492 µM (active) | IC50 (Albumin): > 94.1 µM (inactive)

CCCCn1c(SCC(=O)Nc2nnc(CC)s2)nc2c1c(=O)n(C)c(=O)n2C
IC50 (HEK293 [9]): > 20 µM (inactive) | IC50 [10]: > 25 µM (inactive) | IC50 (Interleukin-8 [11]): > 25 µM (inactive) | IC50 [12]: 9.39 µM (active) | IC50 [13]: 7.19 µM (active) | IC50 [14]: 7.92 µM (active) | IC50 (Interleukin-8 [15]): > 25 µM (inactive) | IC50 (HEK293 [16]): > 20 µM (inactive)
